This data set in a line: in vitro. Particulars: human, hela cells.

In publication PMC12040169 (PLOS Biology, 2025) one finds viability data, which are given here for 63 molecules.

A word on the viability: it is a read-out of living cells in per cent, often relative to untreated cells.

Turning to `Nc1nc(N)c(Cc2ccc(Cl)cc2Cl)c(N)n1` [CBK009425], the viability at 28.5 h, 10 µM (% viability) amounted to 94.7%.

For `COc1cc(CO)c(-c2c[nH][nH]c2=O)cc1OC` [CBK009476], where the note is “% viability”, the viability at 28.5 h, 10 µM is 85.5%.

As for `CC1COCC(C)N1c1ccc2nnc(-c3ccc(C(F)(F)F)cc3)n2n1` (stereo not drawn) [CBK009548], the viability at 28.5 h, 10 µM (% viability) is 81.7%.

Take `COC(=O)C(Nc1cccc(Cl)c1)(c1cc(OC)c(O)c(OC)c1)C(F)(F)F` (stereo not drawn) [CBK009591]: the viability at 28.5 h, 10 µM (% viability) worked out at 96.6%.

With `COCCOCCOc1ccccc1OCCOCCOC` [CBK009636], under “% viability”, the viability at 28.5 h, 10 µM was determined as 89%.

In the case of `CN(C)CCN(C)c1cc(C(F)(F)F)nc(NCc2ccc(Cl)cc2)n1` [CBK009668], the viability at 28.5 h, 10 µM (% viability) stood at 93%.

For the molecule `FC(F)(F)C1CN(C2CCCCC2)C(=S)S1` (stereo not drawn) [CBK009719], the viability at 28.5 h, 10 µM (% viability) was 84.2%.

Regarding `COc1ccc(C[C@@]23CCC(=O)C[C@@H]2N(C)CC3)cc1` [CBK009720], the viability at 28.5 h, 10 µM (% viability) came to 102%.

Turning to `O=c1[nH]c2cc(NCCO)c([N+](=O)[O-])cc2[nH]1` [CBK009794], for the setting “% viability”, the viability at 28.5 h, 10 µM was found to be 93.2%.

Regarding `Cc1nc(-c2cc(Cl)c(Cl)s2)cs1` [CBK009801], the viability at 28.5 h, 10 µM (% viability) stood at 84.2%.

Turning to `CC/C(=N\C(N)=O)c1ccccc1` [CBK009865], the viability at 28.5 h, 10 µM (% viability) was determined as 82.9%.

For the molecule `CC(C)Oc1cccc2cccc(C(O)CN(C)C)c12` (stereo not drawn) [CBK009892], where the note is “% viability”, the viability at 28.5 h, 10 µM came out at 98.5%.

`O=C1CC2(CCCCC2)C(C(=O)O)N1` (stereo not drawn) [CBK009895]: where the note is “% viability”, the viability at 28.5 h, 10 µM was 114%.

For `CC1(C)C(=O)N2CCN=C2c2ccccc21` [CBK009903], the viability at 28.5 h, 10 µM (% viability) stood at 78.6%.

In the case of `COC(=O)c1ccc2oc(-c3cc(C(O)CNC(C)(C)C)ccc3OC(C)C)cc(=O)c2c1` (stereo not drawn) [CBK009944C], under “% viability”, the viability at 28.5 h, 10 µM stood at 85%.

Regarding `O=C(c1ccccc1)C1(CO)COCc2nccn21` (stereo not drawn) [CBK009980], the viability at 28.5 h, 10 µM (% viability) came out at 88.7%.

As to `CN(C)c1cc(=O)c2cc3c(cc2o1)CCC3` [CBK010017], the viability at 28.5 h, 10 µM (% viability) amounted to 67.2%.

Consider `CCOCCN(CCOCC)c1nnc2ccc(Cl)nn12` [CBK010024], for which, for the setting “% viability”, the viability at 28.5 h, 10 µM came out at 99.6%.

`OC(Cn1ccnc1)C1CCCCC1` (stereo not drawn) [CBK010092]: the viability at 28.5 h, 10 µM (% viability) was determined as 78.3%.

For `CN1C(/C=N/O)=C(O)c2ccccc2S1(=O)=O` [CBK010098], the viability at 28.5 h, 10 µM (% viability) is 94.1%.

In the case of `O=C1NC(Nc2ccc(SCCN3CCOCC3)cc2)c2ccccc21` (stereo not drawn) [CBK010123], the viability at 28.5 h, 10 µM (% viability) is 93.6%.

`COc1cc(C(=O)c2ccc(Cl)cc2)cc(Br)c1OCCN1CCOCC1` [CBK010131C]: the viability at 28.5 h, 10 µM (% viability) was 96.5%.

`CCNC(=O)C1=C(C(=O)NCC)N2C(=NC(C)(C)c3ccccc32)S1` [CBK010172]: the viability at 28.5 h, 10 µM (% viability) worked out at 102%.

With `CCCCC1(COC(C)=O)OC(=O)Nc2ccc(Br)cc21` (stereo not drawn) [CBK010195], the viability at 28.5 h, 10 µM (% viability) came to 91.1%.

Consider `COc1cc2c(cc1S(N)(=O)=O)C(=O)CCC2` [CBK010234], for which the viability at 28.5 h, 10 µM (% viability) is 92.2%.

For the molecule `Cn1c(SCCN2CCOCC2)nnc1-c1cccs1` [CBK010243], where the note is “% viability”, the viability at 28.5 h, 10 µM stood at 89.3%.

In the case of `CCCN1CCN(c2ncc(CNS(=O)(=O)c3ccc(Cl)cc3)cn2)CC1` [CBK010261], under “% viability”, the viability at 28.5 h, 10 µM amounted to 101%.

Regarding `O=S1(=O)CCCN1c1ccc2[nH]ncc2c1` [CBK010263], under “% viability”, the viability at 28.5 h, 10 µM stood at 102%.

Take `CCOC(=O)N1COC[C@@H]1C(=O)O` [CBK010379]: under “% viability”, the viability at 28.5 h, 10 µM is 81.5%.

With `CC(=O)NC[C@H]1CN(c2ccc(C#N)c(C)c2)C(=O)O1` [CBK010393], the viability at 28.5 h, 10 µM (% viability) was determined as 107%.

As to `CCN1CCC2(CC1)Nc1cc(Cl)c(S(N)(=O)=O)cc1S(=O)(=O)N2` [CBK010418C], the viability at 28.5 h, 10 µM (% viability) came to 97.7%.

Regarding `CCC(Cc1c[nH]c2ccccc12)NC(=N)N` (stereo not drawn) [CBK010430], the viability at 28.5 h, 10 µM (% viability) worked out at 102%.

In the case of `COc1ccc(NS(=O)(=O)c2ccc(C)cc2)cn1` [CBK010484], the viability at 28.5 h, 10 µM (% viability) came out at 85.8%.

In the case of `COC(=O)C(C)CSc1ccc(C(C)(C)C)cc1` (stereo not drawn) [CBK010499], the viability at 28.5 h, 10 µM (% viability) turned out to be 107%.

On to `CC(C)(O)Cc1ccccc1C(=O)NC1CCCCCC1` [CBK010502], for which, where the note is “% viability”, the viability at 28.5 h, 10 µM is 81.7%.

For the molecule `CN(C)[C@H]1CCCC[C@@H]1n1c(-c2ccc(Cl)c(Cl)c2)n[nH]c1=O` [CBK010566], where the note is “% viability”, the viability at 28.5 h, 10 µM was 114%.

Take `O=c1[nH]nc2n1-c1ccccc1OC2` [CBK010583]: the viability at 28.5 h, 10 µM (% viability) amounted to 104%.

As for `CNC(=O)Oc1cc(C)c(SC)c(C)c1` [CBK010586], for the setting “% viability”, the viability at 28.5 h, 10 µM turned out to be 77.2%.

For the molecule `O=C(c1ccccn1)c1ccccn1` [CBK010601], the viability at 28.5 h, 10 µM (% viability) is 89%.

For `COc1ccc(C2Sc3ccccc3N(CCN(C)C)C(=O)C2OC(C)=O)cc1` (stereo not drawn) [CBK010647], the viability at 28.5 h, 10 µM (% viability) worked out at 98%.

With `NC(=O)CSc1ccccc1` [CBK010649], under “% viability”, the viability at 28.5 h, 10 µM was determined as 91.2%.

Consider `CCC(=O)NC1Cc2cccc3c2N(CCC3)C1=O` (stereo not drawn) [CBK010667], for which, under “% viability”, the viability at 28.5 h, 10 µM was determined as 113%.

For the molecule `NS(=O)(=O)c1cccc2c1CC1(CC2)OCCO1` [CBK010703], the viability at 28.5 h, 10 µM (% viability) came to 84.6%.

`O=C1OCC(O)=C1C(c1ccccc1)C1CC1` (stereo not drawn) [CBK010731]: the viability at 28.5 h, 10 µM (% viability) is 91%.

Regarding `Cc1ncc(C(O)c2ccc(Cl)cc2)c2c1OC(C)(C)OC2` (stereo not drawn) [CBK010749], the viability at 28.5 h, 10 µM (% viability) was 111%.

`O=C(c1ccco1)c1cnc2ccccn2c1=O` [CBK010791]: under “% viability”, the viability at 28.5 h, 10 µM is 109%.

As for `Cc1nn(Cc2nnc(-c3cccs3)o2)c(C)c1Br` [CBK010809], the viability at 28.5 h, 10 µM (% viability) came out at 87.7%.

For the molecule `COC(=O)C1C2CCN(CC2)C1SCc1cccc(C(F)(F)F)c1` (stereo not drawn) [CBK010829C], the viability at 28.5 h, 10 µM (% viability) amounted to 87.1%.

As to `CCC(=O)Oc1ccc(/N=C2/NC(C)(C)O2)cc1` [CBK010922], the viability at 28.5 h, 10 µM (% viability) is 87.6%.

Take `N/C(CS(=O)(=O)Cc1ccc(F)cc1)=N/O` [CBK010956]: where the note is “% viability”, the viability at 28.5 h, 10 µM amounted to 89.2%.

With `CCCc1cc(=O)n2c(n1)SCOC2` [CBK010967], the viability at 28.5 h, 10 µM (% viability) turned out to be 108%.

Turning to `COC(=O)C1CC(O)CC1C(=O)N1CCCC1` (stereo not drawn) [CBK011029], the viability at 28.5 h, 10 µM (% viability) worked out at 89.6%.

With `Nc1nonc1OCC(COc1nonc1N)(COc1nonc1N)COc1nonc1N` [CBK011044], the viability at 28.5 h, 10 µM is 85.6%.

Regarding `COc1ccc(-c2c[n+]3ccccc3c(=O)[nH]2)cc1` [CBK011078B], for the setting “% viability”, the viability at 28.5 h, 10 µM amounted to 93.8%.

Take `O=c1cc(NCCCN2CCN(Cc3ccccc3)CC2)c2ccccc2o1` [CBK011079]: the viability at 28.5 h, 10 µM (% viability) stood at 81%.

Consider `O=S(=O)(Cc1csc(N2CCOCC2)n1)c1ccccn1` [CBK011137], for which the viability at 28.5 h, 10 µM (% viability) is 90.1%.

Consider `CC[n+]1c(C(C)(C)C)csc1NCC1CC1` [CBK011154B], for which the viability at 28.5 h, 10 µM (% viability) is 106%.

Turning to `CCOC(=O)c1ccc(C2=NCCC2)[nH]1` [CBK011191], where the note is “% viability”, the viability at 28.5 h, 10 µM was determined as 95.1%.

For `O=C(O)c1c[nH]c2ccc(S(=O)(=O)N3CCOCC3)cc12` [CBK011237], where the note is “% viability”, the viability at 28.5 h, 10 µM was found to be 97.3%.

For the molecule `O=C(c1ccc([N+](=O)[O-])cc1)C12CN3CN(CN(C3)C1)C2` [CBK011238], the viability at 28.5 h, 10 µM (% viability) came out at 87.1%.

Turning to `NC(=S)c1c(Cl)cc(C(F)(F)F)cc1Cl` [CBK011349], the viability at 28.5 h, 10 µM (% viability) came out at 105%.

As for `CC(=O)Nc1nc2c3ccccc3n(C(C)=O)c2s1` [CBK011360], the viability at 28.5 h, 10 µM (% viability) came out at 110%.

Consider `CC1=CCC2(CC1)COC(C(C)(C)CN(C)C)OC2` (stereo not drawn) [CBK011369], for which the viability at 28.5 h, 10 µM (% viability) was 91.7%.
